# Reference: patent US9018224B2, “Substituted cyclopropyl compounds useful as GPR119 agonists” (Merck Sharp & Dohme Corp., priority 2011, dated 2015)
# pEC50: −log10 of the molar value.
# Target: T1, human GPR119 (Homo sapiens, UniProt Q8TDV5)
# T1 sequence (Q8TDV5 1-308 limits assumed): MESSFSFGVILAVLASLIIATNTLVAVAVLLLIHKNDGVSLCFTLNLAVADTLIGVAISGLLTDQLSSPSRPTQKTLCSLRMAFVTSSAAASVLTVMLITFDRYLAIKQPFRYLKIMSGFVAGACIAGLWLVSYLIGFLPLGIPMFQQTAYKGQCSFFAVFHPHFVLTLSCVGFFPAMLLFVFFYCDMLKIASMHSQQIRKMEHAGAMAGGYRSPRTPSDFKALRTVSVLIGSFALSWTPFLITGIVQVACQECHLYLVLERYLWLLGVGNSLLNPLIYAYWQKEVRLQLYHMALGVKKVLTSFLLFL
# Experiment: Measurement of GPR119 signaling by cAMP (LANCE cAMP kit or HTRF) in HEK293 cells transfected with human GPR119
# Format: cell-based
# Details: agonist cAMP response in HEK293 cells stably transfected with human GPR119; patent does not say which of the two cAMP formats (LANCE or HTRF)
# How it was run: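 LANCE TR-FRET cAMP readout; detection with Eu-SA/biotin-cAMP tracer for 3 h, signal converted to cAMP via standard curve, duplicates, 4-parameter fit vs DMSO basal and internal agonist maximum.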
row,Structure (SMILES),pEC50
1,"COCc1ccc(N2CCC([C@H]3C[C@H]3CCOc3ccc(CC(=O)N4CCC4)c(F)c3)CC2)nc1 [Example 237, 1-(azetidin-1-yl)-2-(2-fluoro-4-{2-[(1S,2R)-2-{1-[5-(methoxymethyl)pyridin-2-yl]piperidin-4-yl}cyclopropyl]ethoxy}phenyl)ethanone]",9.03
2,"CCc1cnc(N2CCC([C@H]3C[C@H]3CCOc3ccc(CC(=O)N4CCC4)cn3)CC2)nc1 [Example 241, 1-(azetidin-1-yl)-2-[6-(2-{(1S,2R)-2-[1-(5-ethylpyrimidin-2-yl)piperidin-4-yl]cyclopropyl}ethoxy)pyridin-3-yl)ethanone]",8.13
3,O=C(Cc1ccc(OCC[C@@H]2C[C@@H]2C2CCN(c3ncc(Cl)cn3)CC2)nc1)N1CCC1 [Example 242],8.03
4,"Cc1cnc(Cc2ccc(OCC[C@@H]3C[C@@H]3C3CCN(c4ncc(Cl)cn4)CC3)cc2F)o1 [Example 243, 5-chloro-2-{4-[(1R,2S)-2-(2-{3-fluoro-4-[(5-methyl-1,3-oxazol-2-yl)methyl]phenoxy}ethyl)cyclopropyl]piperidin-1-yl}pyrimidine]",8.60
5,"Cc1nnc(Cc2ccc(OCC[C@@H]3C[C@@H]3C3CCN(c4ncc(Cl)cn4)CC3)cc2F)o1 [Example 244, 5-chloro-2-{4-[(1R,2S)-2-(2-{3-fluoro-4-[(5-methyl-1,3,4-oxadizol-2-yl)methyl]phenoxy}ethyl)cyclopropyl]piperidin-1-yl}pyrimidine]",8.29
6,"Fc1cc(OCC[C@@H]2C[C@@H]2C2CCN(c3ncc(Cl)cn3)CC2)ccc1Cc1nnco1 [Example 245, 5-chloro-2-{4-[(1R,2S)-2-(2-{3-fluoro-4-[(1,3,4-oxadizol-2-yl)methyl]phenoxy}ethyl)cyclopropyl]piperidin-1-yl}pyrimidine]",8.39
7,COCc1cnc(N2CCC([C@H]3C[C@H]3CCOc3ccc(Cc4nnco4)c(F)c3)CC2)nc1 [Example 246],8.11
8,COCc1cnc(N2CCC([C@H]3C[C@H]3CCOc3cc(F)c(Cc4nnco4)c(F)c3)CC2)nc1 [Example 247],8.17
9,"COCc1cnc(N2CCC([C@H]3C[C@H]3CCOc3ccc(Cc4nncs4)c(F)c3)CC2)nc1 [Example 248, 2-[4-((1R,2S)-2-{2-[3-fluoro-4-(1,3,4-thiadiazol-2-ylmethyl)phenoxy]ethyl}cyclopropyl)piperidin-1-yl]-5-(methoxymethyl)pyrimidine]",8.38
10,O=C(Cc1ccc(OCC[C@@H]2C[C@@H]2C2CCN(c3ncc(Cl)cn3)CC2)c(F)c1)N1CCC1 [Example 250],8.66
11,COCc1cnc(N2CCC([C@H]3C[C@H]3CCOc3ccc(CC(=O)N4CCC4)cc3F)CC2)nc1 [Example 251],8.26
